{"source": "patent US5294634A", "about": "“Osteogenesis promoter” (Zeria Pharmaceutical Co., Ltd., priority 1989, dated 1994)", "key": {"femoral diaphysis [1]": {"tested_on": "femoral diaphysis", "assay": "Osteogenesis-stimulating action (overall, Test Example 1)", "format": "in vivo, young Wistar rats", "details": "for change in zinc content, calcium content and alkaline phosphatase activity in the femoral diaphysis: oral, 5.5 mg/kg body weight in terms of zinc, 3 days, in words", "experimental": "(§1) The osteogenesis-stimulating action of the zinc complex of L-carnosine was confirmed by the calcium content, zinc content, alkaline phosphatase activity and DNA content in the femoral diaphysis of young rats used. Zinc sulfate was used as a comparative compound.\n(§2) Young Wistar rats were used regarding five rats as one group. […] A control group was orally given with a solvent alone.\n(§3) The agent to be tested was administered for 3 days once a day in an amount corresponding to 5.5 mg/kg body weight in terms of zinc. Upon elapsed time of 24 hours after the last dose, the rats were sacrificed and the femoral regions were taken out of each rat under light ether anesthesia. Soft tissues and bone marrow were removed from the femoral region. The diaphysis and epiphysis (including metaphyseal tissues) were separated from each other to form fragments of the femoral diaphysis."}, "femoral diaphysis [2]": {"tested_on": "femoral diaphysis", "assay": "Zinc content in femoral diaphysis of young rats (Test Example 1)", "format": "in vivo, young Wistar rats", "details": "oral, 5.5 mg/kg body weight in terms of zinc, once a day for 3 days; 24 h after last dose; average ± standard error; control 156.9 ± 7.7", "experimental": "as §1, §2, §3\nA fragment of the femoral diaphysis was digested with nitric acid [Biochem. Pharmacol., 36, 4007-4012 (1986)] to measure the content of zinc by atomic adsorption spectrophotometry. The zinc content was expressed in terms of micrograms of zinc per gram of a wet bone.\n(§4) The data were shown as average value±standard error. The significant difference was determined using the Student's t-test."}, "femoral diaphysis [3]": {"tested_on": "femoral diaphysis", "assay": "DNA content in femoral diaphysis of young rats (Test Example 1)", "format": "in vivo, young Wistar rats", "details": "oral, 5.5 mg/kg body weight in terms of zinc; for change in DNA content in the femoral diaphysis: 3 days, in words; for DNA: once a day for 3 days, 24 h after last dose, average ± standard error, control 1.450 ± 0.020", "experimental": "as §1, §2, §3\nA small fragment of the fempral diaphysis was subjected to homogenization for bone tissue, followed by its shaking together with 4.0 ml of 0.1N sodium hydroxide solution cooled with ice. After the thus-treated homogenate was subjected to alkali extraction, the extract was centrifuged at 10,000×g for 5 minutes. The thus-obtained supernatant liquid was used for the measurement in accordance with the Ceriotti method [J. Biol. Chem., 214, 39-77 (1955)]. The DNA content was expressed in terms of the total DNA content (mg) per gram of a wet bone.\nas §4"}, "femoral diaphysis [4]": {"tested_on": "femoral diaphysis", "assay": "Calcium content in femoral diaphysis of young rats (Test Example 1, osteogenesis-stimulating action)", "format": "in vivo, young Wistar rats", "details": "oral, 5.5 mg/kg body weight in terms of zinc, once a day for 3 days; 24 h after last dose; average ± standard error; control 386.5 ± 6.5", "experimental": "as §1, §2, §3\nThe femoral diaphysis tissue was ashed for 24 hours at 640° C. to weigh the resulting ash. Thereafter, the ash was dissolved in 6N hydrochloric acid to measure its calcium content by atomic absorption spectrophotometry. The calcium content in the bone was expressed in terms of mg per g of the bone ash.\nas §4"}, "rats": {"tested_on": "rats", "assay": "Oral acute toxicity (Test Example 2)", "format": "in vivo, Wister male and female rats", "details": "10 g/kg body weight, observation for 7 days, male and female rats", "source_text": "Using Wister male and female rats of 150-200 g by weight regarding 10 rats as respective groups, the crystalline zinc complex of L-carnosine in a dose of 10 g/kg body weight) was orally administered to each rat."}, "alkaline phosphatase": {"tested_on": "alkaline phosphatase", "assay": "Alkaline phosphatase activity in femoral diaphysis of young rats (Test Example 1)", "format": "in vivo, young Wistar rats", "details": "oral, 5.5 mg/kg body weight in terms of zinc, once a day for 3 days; 24 h after last dose; average ± standard error; control 1599.6 ± 74.5", "experimental": "as §1, §2\nThe agent to be tested was administered for 3 days once a day in an amount corresponding to 5.5 mg/kg body weight in terms of zinc. Upon elapsed time of 24 hours after the last dose, the rats were sacrificed and the femoral regions were taken out of each rat under light ether anesthesia. […]\nThe femoral diaphysis tissue was immersed into 3 ml of ice-cold 6.5 mM barbital buffer solution (pH: 7.4) and then cut into pieces to uniformly grind them by a Potter-Blvehjem homogenizer equipped with a Teflon pestle. […] The alkaline phosphatase activity was determined in accordance with the Wallter-Schutt procedure [Bergmeyer HU (ed), Methods of enzymatic analysis, Vol. 1-2, Academic Press, New York, pp. 856-860 (1965)]. […] The concentration of protein was measured in accordance with the method by Lowry et al. [J. Biol. Chem., 193, 265-273 (1951)].\nas §4"}, "[5]": {"details": "in vivo; cited from earlier work"}}}
{"smiles": "NCCC(=O)[N-][C@@H](Cc1c[nH]cn1)C(=O)[O-].[Zn+2]", "note": "[L-carnosine zinc complex, Crystalline Zinc Complex of L-Carnosine]", "values": [{"measurement": "change in zinc content, calcium content and alkaline phosphatase activity in the femoral diaphysis", "setting": "femoral diaphysis [1]", "value": "increased"}, {"measurement": "osteogenesis-stimulating action compared with zinc sulfate", "setting": "femoral diaphysis [1]; same amounts (5.5 mg/kg body weight) in terms of zinc", "value": "stronger osteogenesis-stimulating action than zinc sulfate"}, {"measurement": "Zinc", "setting": "femoral diaphysis [2]", "value": "235.0 ± 9.1", "unit": "μg/g wet bone"}, {"measurement": "change in DNA content in the femoral diaphysis", "setting": "femoral diaphysis [3]", "value": "increased"}, {"measurement": "DNA", "setting": "femoral diaphysis [3]", "value": "2.931 ± 0.100", "unit": "mg/g wet bone"}, {"measurement": "Calcium content", "setting": "femoral diaphysis [4]", "value": "458.1 ± 8.7", "unit": "mg/g bone ash"}, {"measurement": "dead cases", "setting": "rats", "value": "dead cases were not recognized"}, {"measurement": "Alkaline phosphatase", "setting": "alkaline phosphatase", "value": "1963.4 ± 118.3", "unit": "μmol/min/mg protein"}]}
{"smiles": "O=S(=O)([O-])[O-].[Zn+2]", "note": "[Zinc sulfate, zinc sulfate, reference compound]", "values": [{"measurement": "change in zinc content, calcium content and alkaline phosphatase activity in the femoral diaphysis", "setting": "femoral diaphysis [1]", "value": "increased"}, {"measurement": "Zinc", "setting": "femoral diaphysis [2]", "value": "206.7 ± 9.8", "unit": "μg/g wet bone"}, {"measurement": "side effects", "setting": "[5]", "value": "vomiting, nausea and diarrhea"}, {"measurement": "change in DNA content in the femoral diaphysis", "setting": "femoral diaphysis [3]", "value": "a significant change was not produced"}, {"measurement": "DNA", "setting": "femoral diaphysis [3]", "value": "1.510 ± 0.050", "unit": "mg/g wet bone"}, {"measurement": "Calcium content", "setting": "femoral diaphysis [4]", "value": "405.8 ± 4.5", "unit": "mg/g bone ash"}, {"measurement": "Alkaline phosphatase", "setting": "alkaline phosphatase", "value": "2580.5 ± 80.3", "unit": "μmol/min/mg protein"}]}
